Consider five molecules from patent publication US7291710B2, “Detection of spectrin and spectrin proteolytic cleavage products in assessing nerve cell damage” (priority 2002, dated 2007).

The test system of assay [1] is calpain and caspase-3 activation in septo-hippocampal cultures. Briefly: Treatment of septo-hippocampal cultures with calpain, caspase and protein synthesis inhibitors. It counts as cell-based, rat. The settings on record: for antagonism of calpain and caspase-3 activation accompanying staurosporine-induced apoptosis: 37.5 μM CalpInh-II, 30 μM Z-D-DCB, pretreatment 1 hour. Here is the method:
(§1) Septo-hippocampal cultures. Eighteen day old rat fetuses were removed from deeply anesthetized dams. Septi and hippocampi were dissected in a dissection buffer (HBSS, with 4.2 mM bicarbonate, 1 mM pyruvate, 20 mM HEPES, 3 mg/ml BSA, pH 7.25). After rinsing in DMEM-DM, tissue was dissociated by trituration through the narrow pore of a flame-constricted Pasteur pipette. Dissociated cells were resuspended in DMEM with 10% fetal calf serum (DMEM-10S) and plated on 24-well poly-L-lysine coated plastic culture plates or 12 mm of German glass (Erie Scientific Co.) at a density of 4.36×10^5 cells/mL. Cultures were maintained in a humidified incubator in an atmosphere of 5% CO2 at 37° C. After 5 days of culture, the media was changed to DMEM-DM. […] Subsequent media changes were carried out three times a week. By day 10 in vitro, astrocytes formed a confluent monolayer beneath morphologically mature neurons.
Treatment of septo-hippocampal cultures with calpain, caspase, and protein synthesis inhibitors. Sister cultures were pretreated with either 37.5 μM calpain inhibitor-II (CalpInh-II) (Boehringer Mannheim), 30 μM of the pan-caspase inhibitor Z-D-DCB (obtained from Biochem), or 1 μg/mL of the protein synthesis inhibitor, cycloheximide (Sigma), […] The inhibitor concentrations provide optimal inhibition of calpains, caspase-3 (CPP32) proteases, and protein synthesis. […] This investigation also employed degradation of αII-spectrin to provide independent confirmation that the concentrations of CalpInh-II and Z-D-DCB used in this study to inhibit calpains and caspase-3 proteases. […] Following each experiment, cells were fixed for staining, or protein or DNA extraction was performed.
SDS-Polyacrylamide Gel electrophoresis and immunoblotting. At the end of an experiment, cells were harvested from 5 identical culture wells and collected in 15 ml centrifuge tubes and centrifuged at 3000 g for 5 min. The medium was removed and the pellet cells were rinsed with 1× DPBS. […]

The subject of assay [2] is septo-hippocampal cultures. Briefly: αII-spectrin immunoblot of septo-hippocampal cultures after maitotoxin or staurosporine insult. It counts as cell-based, rat. As to conditions: maitotoxin 30 min, 1 hr; staurosporine 3 hr; anti-α-spectrin antibody FG 6090. As for the experimental part: as §1, with “By day 10 in vitro, astrocytes formed a confluent monolayer beneath morphologically mature neurons.” left out
Pharmacological treatment of septo-hippocampal cells with maitotoxin. Ten day old septo-hippocampal cultures were challenged with 0.01-2.0 nM of maitotoxin (Wako Products, Richmond, Va., Cat.# 131-10731) in DMEM-DM and cell viability was monitored at various post-injury time points. […]
Treatment of cultures with staurosporine. Ten day old septo-hippocampal cultures were challenged with 0.05-2.0 μM of staurosporine (Calbiochem, La Jolla, Calif., Cat. # 569397) in DMEM-DM and cell viability was monitored at various post-injury time points. […]
(In general: A western blot detects proteins with antibodies after separation by electrophoresis.)

The structures appear in SMILES notation. Where a SMILES comes first, the peptide text is derived from it.

With `C[C@@H]1C[C@@H]([C@H](O)CC2CC(=O)NC(=O)C2)C(=O)[C@@H](C)C1` [cycloheximide], the “effect on calpain and caspase activation and apoptotic cell death” value in assay [1] (1 μg/mL cycloheximide) is “blocked calpain and caspase activation as well as apoptotic cell death”.
Turning to `O=C(O)CC(NC(=O)OCc1ccccc1)C(=O)COC(=O)c1c(Cl)cccc1Cl` [Z-D-DCB, carbobenzoxy-Asp-CH2—OC (O)-2-6-dichlorobenzene], the “antagonism of calpain and caspase-3 activation accompanying staurosporine-induced apoptosis” value in assay [1] is “could antagonize calpain and caspase-3 activation”.
Same read-out and setting: in the case of `CSCC[C@@H](C=O)NC(=O)[C@H](CC(C)C)NC(=O)[C@H](CC(C)C)NC(C)=O` [CalpInh-II, N-acetyl-Leu-Leu-methioninal] (Ac-Leu-Leu-Met-aldehyde) it was “could antagonize calpain and caspase-3 activation”.
`C=CC[C@H](C)[C@H](C)C[C@@H](O)[C@H](O)[C@@H]1CC[C@@]2(C)O[C@@]3(C)C[C@@]4(C)O[C@H]5/C=C\C[C@H]6O[C@H]7C[C@H]8O[C@H]9C[C@@]%10(C)O[C@@](C)([C@@H]%11CC[C@H]%12O[C@@]%13(C)C[C@H]%14O[C@@]%15(C)C[C@H]%16O[C@@]%17(C)C[C@@H](O)[C@H]([C@@H]%18O[C@H]%19[C@H](O)[C@@H](O)[C@H](C[C@H](O)C[C@@H](O)[C@@H]%20O[C@H]%21[C@H](O)[C@@H](O)[C@H]([C@@H]%22O[C@@H]%23[C@H](O)[C@H]%24O[C@H]%25C[C@H]%26O[C@@H](C[C@H](O)[C@@H](O)[C@H]%27O[C@H]%28[C@H](O)[C@H]%29O[C@H]%30C[C@H]%31O[C@H]%32[C@@H](O)[C@@H](O)[C@H]([C@H](C)[C@H](O)[C@H](C)CC[C@H](OS(=O)(=O)O)[C@H](O)[C@H](C)C[C@@H](O)C(=C)/C(C)=C/CO)O[C@@H]%32[C@H](O)C[C@]%31(C)O[C@@H]%30C[C@]%29(C)O[C@@H]%28C[C@H]%27O)[C@H](OS(=O)(=O)O)[C@H](O)[C@@H]%26O[C@@H]%25C[C@@H]%24O[C@H]%23[C@H](O)[C@H]%22O)O[C@H]%21C[C@H]%20O)O[C@H]%19C[C@H]%18O)O[C@@H]%17[C@H](O)[C@]%16(C)O[C@@H]%15CC[C@]%14(C)O[C@@H]%13C[C@@H]%12O%11)[C@H](O)C[C@@H]%10O[C@]9(C)CC[C@]8(C)O[C@]7(C)C[C@@H]6O[C@@H]5C[C@@H]4O[C@@H]3C[C@@H]2O1` [maitotoxin]: the “type of cell death and protease-specific SBDP detected” value in assay [2] was “necrotic cell death mediated by calpain (145 kDa SBDP) but not caspase-3 (120 kDa SBDP)”.
The same measure, in the same setting: in the case of `CN[C@@H]1C[C@H]2O[C@@](C)([C@@H]1OC)n1c3ccccc3c3c4c(c5c6ccccc6n2c5c31)C(=O)NC4` [staurosporine] it was “apoptotic cell death mediated by caspase-3 (120 kDa SBDP) but not by calpain (145 kDa SBDP)”.
